Where a name gives a salt, the structure may show the parent alone.
Assays:
CLL cells [1] = assay: LC3-Lamp2 co-localization (autophagosome-lysosome fusion) by confocal microscopy in CLL cells; type: cell-based, human; details: CLL cells, 4 hours, flavopiridol 2 μM
Description: After 4 hours exposure to agents, cells were washed in phosphate-buffered saline (PBS) and made adherent on a microscope slide by centrifugation in a Cytospin3 (Shandon) centrifuge. Immediately after cytospin, cells were fixed in cold acetone. […] Nuclei were stained blue with DAPI (Vector Laboratories, Burlingame, Calif.). Images were taken using a 60× objective and 4× digital zoom with Olympus Fluoview 1000 Laser Scanning Confocal microscope at the Ohio State University Campus Microscopy and Imaging Facility. ATF6 antibody was purchased from LifeSpan Biosciences (Seattle, Wash.) and Nrf2 was from Santa Cruz Biotechnology (Santa Cruz, Calif.). Nuclei were evaluated for ATF6 and Nrf2 using confocal microscopy to collect Z stacks, approximately 45 slices per cell, 0.2 μm each.
LC3 intensity and number of dots per cell were both assessed in the fluorescence images. Integrated intensity was measured using Metamorph v.7.0. To calculate the number of “dots” (local extreme point in pixel-intensity profile at which a number of high-intensity pixels form a cluster), a Gaussian filter was first applied to reduce noise. Cells were enumerated electronically by an improved watershed-based algorithm. To quantify co-localization, two binary nuclei images—red (R) and green (G)—are obtained. […]

CLL cells [2] = assay: Cell viability by annexin V/PI flow cytometry in CLL cells
Description: Percent of live cells was determined by staining with annexin V-fluorescein isothiocyanate and propidium iodide (PI). After exposure to agents, cells were washed with PBS and stained in 1× binding buffer (BD Biosciences, Franklin Lakes, N.J.). Cell viability was assessed by flow cytometry using a Beckman-Coulter Cytomics FC500 cytometer. Data were analyzed with the CXP Cytometer software package (Beckman-Coulter). A total of 10,000 cells were counted for each sample. The cells treated with flavopiridol were washed after 4 hours with PBS and re-suspended in regular growth medium (RPMI 1640) supplemented with 10% human serum and antibiotics for the remainder of the incubation time. […] For all the other conditions, cells were incubated with the respective drugs for 24 hours continuously.
CLL cells were suspended in buffer V (Amaxa kit, Lonza, Allendale, N.J.) and nucleofection was performed using program U016 (5 μg siRNA and 1×10^7 cells per cuvette). Scrambled siRNA and siRNAs to ATG5, ATG7 and ASK1 were purchased from Sigma-Aldrich. Cells were immediately suspended in warm, complete media supplemented with 10% human serum, and RNA was extracted after 36 hours. For CDK1 and CDK5, siRNAs were purchased from Applied Biosystems (Carlsbad, Calif.). Transfections were done using 5 nM siRNA per cuvette, and RNA was harvested at 48 hours.

XBP1, IRE1, GRP78 = assay: Real-time RT-PCR of ER stress genes in CLL cells in vitro; type: cell-based, human; details: CLL cells n=5; flavopiridol 2 μM, thapsigargin 1 μM, tunicamycin 3 μg/ml; CD52 control gene
Description: (§1) RNA was extracted using TRIzol reagent (Invitrogen, Carlsbad, Calif.) and purified using QIAGEN RNeasy columns (Qiagen, Valencia, Calif.). cDNA was prepared with SuperScript First-Strand Synthesis System (Invitrogen). Real-time PCR was performed using primers purchased from Applied Biosystems. Detection was performed using an ABI Prism 7700 sequence detection system (Applied Biosystems). Average relative expression (treatment compared with vehicle) was normalized to the internal control gene CD52. Primers to detect spliced XBP1 were designed using Primer 3 software and purchased from IDT. Samples were analyzed on 10% acrylamide gels.

XBP1, IRE1, GRP78, CHOP = assay: Real-time RT-PCR of ER stress genes in CLL cells from patients undergoing flavopiridol treatment; type: in vivo, human; details: CLL patients n=10, 4.5 hour
Description: as §1

Jurkat cell line = assay: eIF2α phosphorylation immunoblot in cell lines (control); type: cell-based
Description: (§2) Proteins extracted from whole cell lysates (50 μg/lane) were separated on polyacrylamide gels and transferred on nitrocellulose membrane. Antibodies used for immunoblots included LC3, IRE1α, TRAF2, PI3K III, ATG4C, ATG5-12, UVRAG, Beclin-1 (Cell Signaling, Boston, Mass.), GAPDH, Nrf2, ASK1, ULK1 (Santa Cruz Biotechnology), and Bif-1, ATG14-Barkor (Sigma-Aldrich, St Louis, Mo.). Species-appropriate secondary antibodies were obtained from BioRad Laboratories (Hercules, Calif.). Following antibody incubations, proteins were detected using a chemiluminescent substrate (BioRad Laboratories). For co-immunoprecipitations, TrueBlot beads (eBiosciences, San Diego, Calif.) and One-hour IP Western kit (GenScript, Piscataway, N.J.) were used according to manufacturer protocols. Quantification was done using FluorChem Q (Alpha Innotech, San Leandro Calif.).

697 cells = assay: ChIP assay of ATF6 at GRP78 promoter in 697 cells; type: cell-based; details: relative to IgG control
Description: (§3) In brief, cells were treated with 37% formaldehyde to ensure crosslinking of proteins to DNA. Cells were lysed and sonicated to shear the chromatin to fragments of approximately 500 bp. Sheared chromatin was incubated with ATF6 antibody (LifeSpan Biosciences, Seattle, Wash.), followed by precipitation, washing and reversing of the crosslinks Purified DNA was then analyzed by real-time quantitative PCR using primers to the GRP78 promoter region. Primers were designed using Primer 3 software and purchased from IDT (Coralville, Iowa).

[3] = test system: ATF6 at GRP78 promoter region; assay: ChIP assay of ATF6 at GRP78 promoter in cells from CLL patients undergoing flavopiridol treatment; type: in vivo, human; details: CLL patient samples before and 4.5 hour after flavopiridol infusion
Description: as §3

IRE1-ASK1-TRAF2 complex = assay: Co-immunoprecipitation of IRE1-ASK1-TRAF2 complex in samples from flavopiridol-treated CLL patients; design: species or system human; details: CLL patient cells in vivo following flavopiridol infusion
Description: as §2

caspases 4 and 8 = assay: Caspase 4 and 8 activity in samples from CLL patients treated with flavopiridol; type: in vivo, human; details: 4.5 hours following flavopiridol infusion
Description: The presence of active caspase enzymes was determined by the AFC assay. Briefly, lysates containing approximately 3×10^6 cells were incubated with 50 μM LEVD-AFC (caspase 4 substrate) or LETD-AFC (caspase 8 substrate) from MP Biomedicals (Solon, Ohio) in 2× cytobuffer from BioVision (Exton, Pa.) containing 10 mM dithiothretiol (DTT). Caspase 4 activity was measured one hour after addition of substrate and caspase 8 activity was measured 30 minutes after addition of substrate. Release of free AFC was measured with a Beckman-Coulter DTX 880 multimode detector (Filters: excitation, 405/10 nm; emission, 535/25 nm). Caspase 4 inhibitor Z-YVAD-FMK was purchased from R&D Systems.

CLL cells [4] = assay: Intracellular calcium in CLL cells; type: cell-based, human; details: CLL cells treated with flavopiridol
CLL patients = CLL patients treated with flavopiridol; cited from earlier work

For `CN1CC[C@H](c2c(O)cc(O)c3c(=O)cc(-c4ccccc4Cl)oc23)[C@H](O)C1` [flavopiridol, (cis-5,7-dihydroxy-2-(2-chlorophenyl)-8-[4-(3-hydroxy-1-methyl)-piperidin-yl]-1-benzopyran-4-one)hydrochloride], the “autophagy flux by LC3-Lamp2 co-localization, agent alone” value (CLL cells [1]) was “unrestricted autophagy flux was demonstrated by co-localization of LC3 and Lamp2”, the “effect of ASK1 siRNA vs scrambled siRNA on sensitivity to the agent” value (CLL cells [2]; CLL cells n=5, flavopiridol 2 μM) was “significantly (P=0.005) more resistant” and the “effect of chloroquine addition on cell death caused by the agent” value (CLL cells [2]; CLL cells, annexin/PI negative, CQ 0.5 μM, flavopiridol 4 hours then washed, CQ continuous 24 hours) was “significantly enhances the cytotoxicity”. For the same compound, the “effect of ATG5/ATG7 siRNA vs scrambled siRNA on cytotoxicity of the agent” value (CLL cells [2]; CLL cells, viability at 24 hours, thapsigargin 1 μM, flavopiridol 2 μM) was “significantly increased”, the “expression of ER stress genes XBP1, IRE1 and GRP78” value (XBP1, IRE1, GRP78) was “significant, time-dependent increase in expression of ER stress genes XBP1, IRE1 and GRP78” and the “expression of XBP1, IRE1 and GRP78 genes, pre-treatment vs end of infusion” value (XBP1, IRE1, GRP78, CHOP) was “significant increases in XBP1, IRE1 and GRP78 genes”. For the same compound, the eIF2α phosphorylation (Jurkat cell line) was “dramatic EIF2α phosphorylation”, the “binding of GRP78 promoter region by ATF6” value (697 cells) was “enhanced binding of the GRP78 promoter region by ATF6” and the “binding of GRP78 promoter region by ATF6” value [3] was “results were similar”. The “IRE1 and ASK1 association with TRAF2” value (IRE1-ASK1-TRAF2 complex) was “increase in IRE1 and ASK1 association with TRAF2”, the “patient samples with at least a two-fold increase in activity of caspases 4 and 8” value (caspases 4 and 8) was 13 of 20 and the intracellular calcium (CLL cells [4]) was “increase of intracellular calcium”. For the same compound, the “CLL patients in whom drug resistance is usually observed” value (CLL patients) was “approximately 40%”.
